# Measurements: US20110300222A1, “LUMINESCENT POROUS SILICON NANOPARTICLES, METHODS OF MAKING AND USING SAME” (THE REGENTS OF THE UNIVERSITY OF CALIFORNIA, priority 2009, published 2011)
# Experiments:
# [1] = in ethanol; cited from earlier work
# [2] = 25° C.; cited from earlier work
# [3] = In vivo toxicity (body mass, histology of kidney, liver, spleen); set-up: species or system mouse; conditions: mice n=3, 2 mgDOX/kg i.v., period of 3 weeks
# Experimental: In vivo degradation, toxicity, and circulation. All animal work was performed in accordance with the institutional animal protocol guidelines in place at the Burnham Institute for Medical Research, and it was reviewed and approved by the Institute's Animal Research Committee. […] For in vivo degradation studies, the mice were sacrificed 1 day, 1 week and 4 weeks after injection, and the brain, heart, kidney, liver, lung, and spleen were collected. The tissues were weighed, digested, and then analyzed for silicon content using ICP-OES. For the in vivo toxicity studies, the mass of each mouse was monitored for 4 weeks after injection and compared with control mice (PBS-injected). The sections of kidney, liver, and spleen tissues harvested from the mice 1 day and 4 weeks after injection were stained with haematoxylin and eosin and then examined by a pathologist.
# To examine preliminary in vivo toxicity, body mass of the mice was monitored every 3 days over a period of 3 weeks.
# [4] = Biodistribution of DOX in mouse organs (DOX fluorescence); assay type: in vivo; conditions: mice n=3, 24 h after single i.v. injection, 2 mgDOX/kg
# Experimental: To determine biodistribution of free DOX and DOX-LPSiNP in mouse, the organs (liver, spleen, kidney, lung, heart, and brain) were collected 24 h after injection, weighed, homogenized in 1.5 mL of 0.3 M HCl 70% ethanol solution, and further incubated in the same solution overnight to extract DOX molecules from the organs and DOX-LPSiNP. The homogenized solution was spun down at 10,000 rpm for 10 min and the supernatant was only used to measure the DOX fluorescence. The DOX fluorescence (λex=480nm and λem=590 nm) in each tissue was quantified as % injected dose (% ID) per gram of wet tissue.
smiles,measurement,setting,value
O=C(O)c1ccccc1C1=c2cc3c4c(c2Oc2c1cc1c5c2CCCN5CCC1)CCC[N+]=4CCC3.[Cl-] [Rhodamine 101],quantum yield of standard,[1],100%
OB(O)O [boric acid],pKa,[2],9.14
"COc1cccc2c1C(=O)c1c(O)c3c(c(O)c1C2=O)C[C@@](O)(C(=O)CO)C[C@@H]3O[C@H]1C[C@H](N)[C@H](O)[C@H](C)O1 [free DOX, doxorubicin]",body mass (weight) change vs PBS control,[3],no statistically significant difference
same,biodistribution of DOX,[4],"accumulated in kidney, lung, and heart"
